# Reference: ChEMBL document CHEMBL1201862, “PubChem BioAssay data set” (2004)
# The source made the active and inactive calls.
# Assays:
# [1] = molecular target: Calcium/calmodulin-dependent protein kinase type II subunit gamma (Homo sapiens, UniProt Q13555); assay type: functional
# [2] = molecular target: Interleukin-1 receptor-associated kinase 1 (Homo sapiens, UniProt P51617); assay type: functional;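 further: IRAK1 tested as one member of a kinome panel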
# [3] = molecular target: Serine/threonine-protein kinase pim-1 (Homo sapiens, UniProt P11309); assay type: functional
# [4] = molecular target: Calcium/calmodulin-dependent protein kinase type II subunit delta (Homo sapiens, UniProt Q13557); assay type: functional
# [5] = molecular target: Serine/threonine-protein kinase pim-3 (Homo sapiens, UniProt Q86V86); assay type: functional;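 further: value obtained as one member of a broad kinase panel profiling effort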
# [6] = molecular target: Calcium/calmodulin-dependent protein kinase type II subunit beta (Homo sapiens, UniProt Q13554); assay type: functional
# [7] = molecular target: DNA dC->dU-editing enzyme APOBEC-3G (Homo sapiens, UniProt Q9HC16); experiment: SAR analysis of small molecule inhibitors of APOBEC3G DNA Deaminase via a fluorescence-based single-stranded DNA deaminase assay - Set 2.; assay type: functional; settings: read-out: IC50_Mean
# [8] = molecular target: DNA dC->dU-editing enzyme APOBEC-3A (Homo sapiens, UniProt P31941); experiment: SAR analysis of small molecule inhibitors of APOBEC3A DNA Deaminase via a fluorescence-based single-stranded DNA deaminase assay - Set 2.; assay type: functional; settings: read-out: IC50_Mean
# [9] = molecular target: Melanin-concentrating hormone receptor 1 (Homo sapiens, UniProt Q99705); experiment: Late-stage fluorescence-based counterscreen for antagonists of the G-protein coupled receptor 7 (GPR7): cell-based dose response assay to identify antagonists of the melanin-concentrating hormone receptor 1 (MCHR1) Set 5.; assay type: functional
# [10] = molecular target: Neuropeptides B/W receptor type 1 (Homo sapiens, UniProt P48145); experiment: GPR7 antagonist potency, late-stage follow-up, cell-based, fluorescence, dose response, set 5 (AID 588566); assay type: functional
# [11] = molecular target: Tyrosine-protein kinase Fer (Homo sapiens, UniProt P16591); assay type: functional;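 further: FER tested as one member of a kinome panel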
# [12] = molecular target: cAMP-dependent protein kinase catalytic subunit alpha (Homo sapiens, UniProt P17612); assay type: functional
# [13] = molecular target: Testis-specific serine/threonine-protein kinase 2 (Homo sapiens, UniProt Q96PF2); assay type: functional;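 further: part of the Navigating the Kinome panel, target entry STK22B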
# [14] = HepG2 cell cytotoxicity, dose response, cytotoxicity control for Shn3 inhibitor project, CellTiter-Glo, cherry-picked (AID 624134); assay type: functional, cell-based
# [15] = molecular target: STE20-like serine/threonine-protein kinase (Homo sapiens, UniProt Q9H2G2); assay type: functional
# [16] = molecular target: Testis-specific serine/threonine-protein kinase 1 (Homo sapiens, UniProt Q9BXA7); assay type: functional
# [17] = molecular target: T1, Tyrosine-protein kinase JAK3 (Homo sapiens, UniProt P52333); assay type: functional
# T1 sequence (P52333 whole entry): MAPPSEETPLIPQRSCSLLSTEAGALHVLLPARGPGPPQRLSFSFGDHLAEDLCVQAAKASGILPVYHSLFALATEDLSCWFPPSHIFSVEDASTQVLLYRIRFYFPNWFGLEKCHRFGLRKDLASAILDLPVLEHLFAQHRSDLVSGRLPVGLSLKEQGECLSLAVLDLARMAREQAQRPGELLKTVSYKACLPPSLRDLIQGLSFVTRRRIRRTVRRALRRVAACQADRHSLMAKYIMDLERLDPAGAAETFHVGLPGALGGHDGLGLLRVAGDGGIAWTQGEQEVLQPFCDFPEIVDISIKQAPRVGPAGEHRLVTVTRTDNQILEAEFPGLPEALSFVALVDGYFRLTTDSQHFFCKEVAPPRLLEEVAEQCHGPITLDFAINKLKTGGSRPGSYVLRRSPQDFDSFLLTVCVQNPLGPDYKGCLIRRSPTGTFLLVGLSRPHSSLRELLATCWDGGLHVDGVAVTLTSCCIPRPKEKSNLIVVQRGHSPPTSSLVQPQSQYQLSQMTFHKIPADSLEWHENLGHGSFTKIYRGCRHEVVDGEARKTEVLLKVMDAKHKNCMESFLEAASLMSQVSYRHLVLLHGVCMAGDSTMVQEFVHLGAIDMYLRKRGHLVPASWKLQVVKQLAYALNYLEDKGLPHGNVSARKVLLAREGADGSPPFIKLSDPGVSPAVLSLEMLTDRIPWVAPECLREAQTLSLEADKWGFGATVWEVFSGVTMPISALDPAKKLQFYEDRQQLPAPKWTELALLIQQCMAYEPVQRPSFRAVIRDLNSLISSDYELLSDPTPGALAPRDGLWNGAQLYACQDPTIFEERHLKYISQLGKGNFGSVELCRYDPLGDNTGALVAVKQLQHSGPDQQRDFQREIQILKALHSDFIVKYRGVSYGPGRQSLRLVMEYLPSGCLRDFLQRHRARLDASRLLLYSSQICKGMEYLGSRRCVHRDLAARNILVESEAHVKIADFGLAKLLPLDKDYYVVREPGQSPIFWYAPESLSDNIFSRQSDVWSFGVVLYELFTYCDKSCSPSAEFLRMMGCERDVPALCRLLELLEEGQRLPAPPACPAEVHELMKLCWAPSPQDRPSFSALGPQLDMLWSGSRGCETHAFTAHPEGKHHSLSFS
# [18] = molecular target: Serine/threonine-protein kinase pim-2 (Homo sapiens, UniProt Q9P1W9); assay type: functional;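 further: value comes from a broad kinase panel profiling study in which PIM2 was one of the panel members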
# Aurora kinase A = Aurora kinase A (Homo sapiens, UniProt O14965); assay type: functional;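 further: value from the Navigating the Kinome kinase panel profiling, panel entry STK6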
# Focal adhesion kinase 1 = Focal adhesion kinase 1 (Homo sapiens, UniProt Q05397); assay type: functional;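 further: measured as one member of a kinome panel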
# [19] = molecular target: Maternal embryonic leucine zipper kinase (Homo sapiens, UniProt Q14680); assay type: functional
# [20] = control 3'UTR Renilla luciferase suppression, dose response, counter-screen for Shn3 inhibitor project, cell-based, Clone20-Shn3RL, cherry-picked (AID 624133); assay type: functional
# [21] = molecular target: Tyrosine-protein kinase ITK/TSK (Homo sapiens, UniProt Q08881); assay type: functional;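 further: affinity for ITK measured as one member of a broad kinase panel profiling binding across the kinome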
# [22] = molecular target: cAMP-dependent protein kinase catalytic subunit PRKX (Homo sapiens, UniProt P51817); assay type: functional
# [23] = molecular target: Tyrosine-protein kinase SYK (Homo sapiens, UniProt P43405); assay type: functional
# [24] = molecular target: Mitogen-activated protein kinase 13 (Homo sapiens, UniProt O15264); assay type: functional
# [25] = HEp-2 cell cytotoxicity, dose response, cytotoxicity control for RSV inhibitor project, HTS (AID 2410); assay type: functional; settings: human respiratory syncytial virus
# [26] = Shn3 3'UTR reporter inhibitors, dose response, cell-based, Clone20 osteoblasts, firefly luciferase, cherry-picked (AID 624132); assay type: functional;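 further: firefly luciferase luminescence from reporter carrying the Shn3 3'UTR in osteoblasts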
# Chain of Aurora kinase A (O14965 whole entry): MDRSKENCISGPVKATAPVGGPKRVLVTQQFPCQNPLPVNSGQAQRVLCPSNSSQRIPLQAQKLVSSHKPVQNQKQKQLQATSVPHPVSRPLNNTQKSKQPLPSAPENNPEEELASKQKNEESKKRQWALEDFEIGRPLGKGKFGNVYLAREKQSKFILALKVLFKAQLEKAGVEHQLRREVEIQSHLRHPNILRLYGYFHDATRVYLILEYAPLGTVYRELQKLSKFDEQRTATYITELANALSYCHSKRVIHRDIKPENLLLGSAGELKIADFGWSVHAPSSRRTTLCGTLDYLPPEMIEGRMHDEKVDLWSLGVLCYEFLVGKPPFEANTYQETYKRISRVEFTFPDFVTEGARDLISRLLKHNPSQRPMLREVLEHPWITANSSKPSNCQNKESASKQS
# Chain of DNA dC->dU-editing enzyme APOBEC-3A (P31941 whole entry): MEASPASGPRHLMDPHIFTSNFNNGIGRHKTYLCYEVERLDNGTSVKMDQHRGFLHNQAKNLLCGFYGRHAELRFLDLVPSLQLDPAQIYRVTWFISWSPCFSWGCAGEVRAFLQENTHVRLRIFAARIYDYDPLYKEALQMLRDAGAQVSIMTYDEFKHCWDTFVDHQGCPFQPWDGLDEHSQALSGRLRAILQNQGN
# Chain of STE20-like serine/threonine-protein kinase (Q9H2G2 whole entry): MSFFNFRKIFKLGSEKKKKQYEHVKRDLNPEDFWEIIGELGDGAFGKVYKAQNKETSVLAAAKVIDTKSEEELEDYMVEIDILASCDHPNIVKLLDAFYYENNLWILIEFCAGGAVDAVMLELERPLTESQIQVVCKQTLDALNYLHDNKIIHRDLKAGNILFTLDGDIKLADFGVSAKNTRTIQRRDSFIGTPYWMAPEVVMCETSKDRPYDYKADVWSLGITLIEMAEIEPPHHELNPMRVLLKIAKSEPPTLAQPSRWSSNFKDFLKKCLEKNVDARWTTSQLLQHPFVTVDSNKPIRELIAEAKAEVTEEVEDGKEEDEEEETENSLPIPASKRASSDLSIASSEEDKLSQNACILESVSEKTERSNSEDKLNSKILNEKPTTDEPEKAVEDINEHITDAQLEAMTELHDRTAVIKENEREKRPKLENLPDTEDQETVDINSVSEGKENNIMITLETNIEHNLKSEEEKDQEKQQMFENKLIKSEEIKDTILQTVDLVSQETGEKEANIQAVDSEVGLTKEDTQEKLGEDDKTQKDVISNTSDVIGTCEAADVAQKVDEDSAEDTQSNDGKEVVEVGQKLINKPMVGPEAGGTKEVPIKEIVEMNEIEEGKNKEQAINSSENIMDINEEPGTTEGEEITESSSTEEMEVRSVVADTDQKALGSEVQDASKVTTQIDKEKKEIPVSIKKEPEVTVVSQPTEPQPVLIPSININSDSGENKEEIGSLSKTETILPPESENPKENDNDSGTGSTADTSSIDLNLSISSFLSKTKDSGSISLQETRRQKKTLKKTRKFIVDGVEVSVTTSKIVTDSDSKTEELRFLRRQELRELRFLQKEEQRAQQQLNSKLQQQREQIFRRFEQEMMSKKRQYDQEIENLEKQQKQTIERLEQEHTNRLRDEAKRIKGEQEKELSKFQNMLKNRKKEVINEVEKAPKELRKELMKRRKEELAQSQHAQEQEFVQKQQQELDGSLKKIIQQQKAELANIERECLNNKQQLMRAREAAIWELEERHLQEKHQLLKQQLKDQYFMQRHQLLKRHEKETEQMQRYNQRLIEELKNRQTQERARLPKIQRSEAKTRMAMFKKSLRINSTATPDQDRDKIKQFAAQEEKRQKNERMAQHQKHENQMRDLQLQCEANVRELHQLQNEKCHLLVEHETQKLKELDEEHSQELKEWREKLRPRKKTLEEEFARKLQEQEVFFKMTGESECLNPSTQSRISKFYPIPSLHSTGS
# Chain of Neuropeptides B/W receptor type 1 (P48145 whole entry): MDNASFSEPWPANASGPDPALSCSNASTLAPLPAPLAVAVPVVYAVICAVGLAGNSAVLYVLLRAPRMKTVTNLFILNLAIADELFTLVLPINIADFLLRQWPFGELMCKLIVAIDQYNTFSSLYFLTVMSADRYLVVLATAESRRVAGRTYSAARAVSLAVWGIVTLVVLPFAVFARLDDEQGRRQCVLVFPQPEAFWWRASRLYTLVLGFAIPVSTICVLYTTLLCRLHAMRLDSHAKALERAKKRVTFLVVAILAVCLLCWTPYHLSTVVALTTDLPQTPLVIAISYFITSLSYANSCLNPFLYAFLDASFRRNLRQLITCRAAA
# Chain of DNA dC->dU-editing enzyme APOBEC-3G (Q9HC16 whole entry): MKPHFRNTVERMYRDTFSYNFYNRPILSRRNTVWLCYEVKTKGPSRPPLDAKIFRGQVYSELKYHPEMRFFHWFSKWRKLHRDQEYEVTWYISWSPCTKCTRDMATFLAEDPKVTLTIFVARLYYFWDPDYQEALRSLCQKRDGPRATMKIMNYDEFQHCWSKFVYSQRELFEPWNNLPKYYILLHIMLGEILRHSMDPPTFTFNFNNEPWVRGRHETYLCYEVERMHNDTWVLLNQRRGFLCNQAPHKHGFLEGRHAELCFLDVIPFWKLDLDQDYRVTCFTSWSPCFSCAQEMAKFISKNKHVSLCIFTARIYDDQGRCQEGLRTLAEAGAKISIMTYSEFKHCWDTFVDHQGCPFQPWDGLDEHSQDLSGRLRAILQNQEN
# Chain of Interleukin-1 receptor-associated kinase 1 (P51617 whole entry): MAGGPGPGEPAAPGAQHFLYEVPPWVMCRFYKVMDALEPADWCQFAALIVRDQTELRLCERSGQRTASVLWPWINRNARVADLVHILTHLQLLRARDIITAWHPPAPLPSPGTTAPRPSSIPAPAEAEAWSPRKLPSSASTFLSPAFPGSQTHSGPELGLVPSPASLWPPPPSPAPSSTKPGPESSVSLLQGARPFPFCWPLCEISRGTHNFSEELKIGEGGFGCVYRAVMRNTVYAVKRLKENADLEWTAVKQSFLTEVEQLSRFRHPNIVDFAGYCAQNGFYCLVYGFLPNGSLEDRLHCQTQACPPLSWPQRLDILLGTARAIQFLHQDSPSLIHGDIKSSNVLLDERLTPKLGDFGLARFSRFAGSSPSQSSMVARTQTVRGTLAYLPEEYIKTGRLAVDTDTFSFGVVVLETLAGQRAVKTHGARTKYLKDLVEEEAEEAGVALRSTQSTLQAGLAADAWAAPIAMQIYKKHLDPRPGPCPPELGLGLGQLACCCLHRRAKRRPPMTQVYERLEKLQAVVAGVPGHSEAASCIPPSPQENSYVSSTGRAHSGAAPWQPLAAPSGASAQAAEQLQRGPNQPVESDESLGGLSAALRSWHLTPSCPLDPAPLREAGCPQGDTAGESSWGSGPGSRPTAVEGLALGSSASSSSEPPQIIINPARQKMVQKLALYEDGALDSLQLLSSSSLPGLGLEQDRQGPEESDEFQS
# Chain of Serine/threonine-protein kinase pim-1 (P11309 whole entry): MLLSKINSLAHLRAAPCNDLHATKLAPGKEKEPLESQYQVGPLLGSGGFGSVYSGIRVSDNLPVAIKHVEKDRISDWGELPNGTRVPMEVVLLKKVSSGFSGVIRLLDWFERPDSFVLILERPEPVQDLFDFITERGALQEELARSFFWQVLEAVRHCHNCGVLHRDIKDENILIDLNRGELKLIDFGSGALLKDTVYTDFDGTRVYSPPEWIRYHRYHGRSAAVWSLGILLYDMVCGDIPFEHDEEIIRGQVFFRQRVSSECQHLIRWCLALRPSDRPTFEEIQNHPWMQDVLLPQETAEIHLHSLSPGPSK
# Chain of Calcium/calmodulin-dependent protein kinase type II subunit beta (Q13554 whole entry): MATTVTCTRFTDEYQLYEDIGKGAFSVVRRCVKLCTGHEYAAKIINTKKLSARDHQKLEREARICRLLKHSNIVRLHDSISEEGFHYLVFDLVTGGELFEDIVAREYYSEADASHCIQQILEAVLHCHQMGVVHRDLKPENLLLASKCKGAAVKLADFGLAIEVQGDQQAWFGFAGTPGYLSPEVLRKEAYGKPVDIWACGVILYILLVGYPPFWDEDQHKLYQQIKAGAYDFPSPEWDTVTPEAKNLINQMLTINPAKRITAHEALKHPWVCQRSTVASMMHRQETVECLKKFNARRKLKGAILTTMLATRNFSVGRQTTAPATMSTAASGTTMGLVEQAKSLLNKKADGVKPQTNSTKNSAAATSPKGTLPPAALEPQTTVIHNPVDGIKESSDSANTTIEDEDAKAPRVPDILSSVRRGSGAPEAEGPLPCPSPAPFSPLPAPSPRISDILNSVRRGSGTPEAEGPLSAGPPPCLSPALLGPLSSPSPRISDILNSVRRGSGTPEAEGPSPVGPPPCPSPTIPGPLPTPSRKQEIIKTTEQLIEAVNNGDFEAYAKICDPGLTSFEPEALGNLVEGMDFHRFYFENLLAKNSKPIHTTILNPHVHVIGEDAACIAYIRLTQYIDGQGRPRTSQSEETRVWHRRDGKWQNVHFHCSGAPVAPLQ
# Chain of Calcium/calmodulin-dependent protein kinase type II subunit gamma (Q13555 whole entry): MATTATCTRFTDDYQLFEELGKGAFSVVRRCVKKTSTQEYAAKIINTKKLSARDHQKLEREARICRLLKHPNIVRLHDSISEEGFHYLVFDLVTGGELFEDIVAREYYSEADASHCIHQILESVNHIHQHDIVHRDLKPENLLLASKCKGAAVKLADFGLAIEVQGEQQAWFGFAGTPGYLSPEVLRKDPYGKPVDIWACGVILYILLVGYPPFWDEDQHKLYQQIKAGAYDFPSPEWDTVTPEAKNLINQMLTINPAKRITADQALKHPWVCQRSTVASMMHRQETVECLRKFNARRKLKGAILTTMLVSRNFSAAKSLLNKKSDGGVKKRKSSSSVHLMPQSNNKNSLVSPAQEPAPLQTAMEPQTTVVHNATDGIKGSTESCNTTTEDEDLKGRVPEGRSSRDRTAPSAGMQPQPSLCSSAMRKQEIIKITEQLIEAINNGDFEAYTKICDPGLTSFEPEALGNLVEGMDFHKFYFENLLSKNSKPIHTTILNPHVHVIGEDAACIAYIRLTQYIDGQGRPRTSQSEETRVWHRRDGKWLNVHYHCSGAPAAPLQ
smiles,measurement,setting,value
CCOC(=O)c1cn(-c2ccc(O)cc2C)c2cc(-c3ccccc3)ccc2c1=O,Ki,[1],3980 nM (active)
same,Ki,[2],7940 nM (active)
same,Ki,[3],1260 nM (active)
same,Ki,[4],5010 nM (active)
same,Ki,[5],3160 nM (active)
same,Ki,[6],5010 nM (active)
CSc1nnc2n(CCC(C)C)c(=O)c3ccccc3n12,IC50,[7],> 99000 nM (inactive)
same,IC50,[8],> 99000 nM (inactive)
Cn1ccc2ccc(Oc3c(Cl)cnn(Cc4cccc5ccccc45)c3=O)cc21,IC50,[9],> 20000 nM (inactive)
same,IC50,[10],3190 nM (active)
Cc1ccc(-c2nn(C(C)(C)C)c3ncnc(N)c23)cc1,Ki,[11],> 1580 nM (inactive)
same,Ki,[12],1580 nM (active)
same,Ki,[13],> 1580 nM (inactive)
same,AC50,[14],> 70000 nM (inactive)
same,Ki,[15],1580 nM (active)
same,Ki,[16],> 1580 nM (inactive)
same,Ki,[17],> 1580 nM (inactive)
same,Ki,[18],> 1580 nM (inactive)
same,Ki,Aurora kinase A,> 1580 nM (inactive)
same,Ki,Focal adhesion kinase 1,> 1580 nM (inactive)
same,Ki,[19],> 1580 nM (inactive)
same,AC50,[20],1970 nM (active)
same,Ki,[21],> 1580 nM (inactive)
same,Ki,[22],> 1580 nM (inactive)
same,Ki,[23],> 1580 nM (inactive)
same,Ki,[24],> 7940 nM (inactive)
same,CC50,[25],9910 nM (active)
same,AC50,[26],5890 nM (active)
